{"source": "paper PMC8558867", "about": "“Development of BromoTag: A “Bump-and-Hole”–PROTAC System to Induce Potent, Rapid, and Selective Degradation of Tagged Target Proteins” (Journal of Medicinal Chemistry, 2021)", "key": {"[1]": {"tested_on": "Brd4^BD2 wild-type domain", "design": "method as in PMID 32756710", "settings": "cited from earlier work"}, "[2]": {"design": "method as in earlier work", "settings": "mice, cited from earlier work"}, "22RV1 cells": {"tested_on": "22RV1 cells", "test": "CellTiter-Glo 2.0 cell viability assay, 22RV1", "type": "cell-based, human", "settings": "Homo sapiens; 22RV1, 48 Hours, mean ±S.E.M, N = 2; read-out: pEC50 (cell viability) (converted)", "method": "(§1) All cell lines were treated with compounds in duplicate (triplicate for DMSO controls) at a 1× concentration in 0.1% DMSO. The compounds were serially diluted to produce a 7-point, 10-fold titration. The cells were treated with 50:100 μL of compound for a final concentration of 10 μM:10 pM in 0.1% DMSO. At the point of spectrometric analysis, cells were treated with 100 μL of Promega CellTiter-Glo 2.0 Cell Viability Assay reagent. The plates were subjected to an orbital shaker for 2 min to encourage lysis and left for a further 5 min to reach peak luminescence. Luminescence was then recorded on a BMG Labtech PHERAstar luminescence plate reader with recommended settings. Data extracted from this analysis was analyzed with GraphPad Prism (v. 8.2.0, GraphPad) and normalized to the DMSO vehicle control. The EC50 values were derived from these plots."}, "MV-4-11 cells": {"tested_on": "MV-4-11 cells", "test": "CellTiter-Glo 2.0 cell viability assay, MV-4-11", "type": "cell-based, human", "settings": "Homo sapiens, MV4-11", "method": "as §1"}, "HEK293 cells": {"tested_on": "HEK293 cells", "test": "CellTiter-Glo 2.0 cell viability assay, HEK293", "type": "cell-based, human", "settings": "Homo sapiens; HEK293, 48 Hours, mean ±S.E.M, N = 3; read-out: pEC50 (cell viability) (converted)", "method": "as §1"}, "[3]": {"tested_on": "proteome of heterozygous BromoTag-Brd2 HEK293 cells", "test": "Multiplexed TMT labeling mass spectrometry proteomics", "type": "cell-based, human", "settings": "1 μM, 2 h", "protocol": "To do this, we subjected our heterozygous BromoTag-Brd2 HEK293 cell line to a 1 μM treatment of 46, its non-degrading control 52, or vehicle (DMSO) for 2 h prior to harvest. The harvested lysate was then subjected to multiplexed tandem mass tag (TMT) labeling mass spectrometry to enable quantitative and unbiased analysis of protein levels in each condition.\nCRISPR-modified BromoTag-Brd2 HEK293 cells (5 × 10^6) were seeded on a […] 24 h before treatment. The cells were treated with either DMSO, 1 μM AGB1, or 1 μM cis-AGB1. After 2 h of treatment, the cells were washed twice with PBS. The cells were lysed in 150 μL of 100 mM TEAB and 5% (w/v) sodium dodecyl sulfate. The lysate was sonicated for 10 s and then centrifuged at 15,000g for 5 min with the supernatant collected post-centrifugation. The samples were then quantified using a micro-BCA protein assay kit (Thermo Fisher Scientific); 300 μg of each sample was then reduced, alkylated, and then digested using the Strap mini protocol (protifi) as described by the manufacturer (protifi) with some modification. The samples were double-digested with trypsin (1:40) first overnight and then for another 6 h with the same ratio (1:40) in 50 mM TEAB buffer. The peptides were quantified using a quantitative fluorometric peptide assay (Thermo Fisher Scientific). […]"}, "[4]": {"tested_on": "BET proteins: Brd2, Brd3, and Brd4", "test": "Single-concentration western blot screen, BET proteins", "type": "cell-based, human", "settings": "1 μM, 6 h", "protocol": "With this initial library in hand, we set out to evaluate the activity and selectivity of our I-BET-based B&H–PROTACs by treating our heterozygous BromoTag-Brd2 HEK293 cells with 1 μM of compounds 15–17 or 1 μM of control compounds MZP-15 (14), MZ1 (1), and cis-MZ1 for 6 h, which is the sufficient time to achieve effective MZ1-induced BET protein degradation (Figure 4A). The cells were harvested, and the subsequent lysate was analyzed via western blot using antibodies against BET proteins: Brd2, Brd3, and Brd4 (Figure 4A).\nAll cells were harvested on ice with RIPA lysis and extraction buffer (Thermo Fisher Scientific, 89901) supplemented with protease inhibitor cocktail (Merck, 11697498001) and Benzonase Nuclease (Sigma, E1014) before being stored at −20 °C prior to use. Total protein quantity was determined using the BCA protein assay (#23225, Pierce, Rockford, Illinois). The protein concentration was determined using the BCA assay (Thermo Fisher Scientific, 23225). The samples were then prepared and loaded onto NuPAGE 4–12% bis–tris Midi gels (Thermo Fisher Scientific, WG1403A), followed by the transfer of proteins onto nitrocellulose membranes (EMD Millipore). […] All western blots were analyzed for band intensities using Image Lab from Bio-Rad (LI-COR, Biosciences). The data extracted from these blots were then plotted and analyzed using Prism (v. 8.2.0, GraphPad)."}}, "note": "Like-named read-outs stand apart in the source and are kept apart here.", "data": [{"smiles": "CC[C@@H](C(=O)OC)[C@@H]1N=C(c2ccc(Cl)cc2)c2c(sc(C)c2C)-n2c(C)nnc21", "note": "[ET-JQ1-OMe]", "values": [{"measurement": "binding to the wild-type domain", "setting": "[1]", "value": "undetectable binding"}]}, {"smiles": "Cc1ncsc1-c1ccc(CNC(=O)[C@@H]2C[C@@H](O)CN2C(=O)[C@@H](NC(=O)COCCOCCOCCNC(=O)C[C@@H]2N=C(c3ccc(Cl)cc3)c3c(sc(C)c3C)-n3c(C)nnc32)C(C)(C)C)cc1", "note": "[MZ1 (1)]", "values": [{"measurement": "T1/2", "setting": "[2]; IV (5 mg/kg), 5 mg/kg", "value": 1.04, "unit": "h"}, {"measurement": "T1/2", "setting": "[2]; SC (5 mg/kg)", "value": 2.95, "unit": "h"}, {"measurement": "EC50", "setting": "22RV1 cells", "value": 5010, "unit": "nM"}, {"measurement": "EC50", "setting": "MV-4-11 cells; MV-4-11, 24 Hours, mean ±S.E.M, N = 2, read-out: pEC50 (cell viability) (converted)", "value": 25.1, "unit": "nM"}, {"measurement": "EC50", "setting": "MV-4-11 cells; MV-4-11 cells, read-out: EC50 (cell viability)", "value": "~20", "unit": "nM"}]}, {"smiles": "CC[C@@H](C(=O)OCCOCCOCCOCC(=O)N[C@H](C(=O)N1C[C@@H](O)C[C@H]1C(=O)NCc1ccc(-c2scnc2C)cc1)C(C)(C)C)[C@@H]1N=C(c2ccc(Cl)cc2)c2c(sc(C)c2C)-n2c(C)nnc21", "note": "[cis-AGB1 (52), (S)-13-((2S,4S)-4-Hydroxy-2-((4-(4-methylthiazol-5-yl)benzyl)carbamoyl)pyrrolidine-1-carbonyl)-14,14-dimethyl-11-oxo-3,6,9-trioxa-12-azapentadecyl (R)-2-((S)-4-(4-chlorophenyl)-2,3,9-trimethyl-6H-thieno[3,2-f][1,2,4]triazolo[4,3-a][1,4]diazepin-6-yl)butanoate]", "values": [{"measurement": "EC50", "setting": "HEK293 cells", "value": "> 10000", "unit": "nM"}, {"measurement": "proteins significantly degraded among the 6621 proteins quantified", "setting": "[3]", "value": "No significant degradation"}]}, {"smiles": "COc1ccc2c(c1)C(c1ccc(Cl)cc1)=NC(CC(=O)NCCOCCOCCOCC(=O)N[C@H](C(=O)N1C[C@H](O)C[C@H]1C(=O)NCc1ccc(-c3scnc3C)cc1)C(C)(C)C)c1nnc(C)n1-2", "note": "(stereo partly drawn) [compound 14, (2S,4R)-1-((2S)-2-(tert-Butyl)-17-(6-(4-chlorophenyl)-8-methoxy-1-methyl-4H-benzo[f][1,2,4]triazolo[4,3-a][1,4]diazepin-4-yl)-4,16-dioxo-6,9,12-trioxa-3,15-diazaheptadecanoyl)-4-hydroxy-N-(4-(4-methylthiazol-5-yl)benzyl)pyrrolidine-2-carboxamide]", "values": [{"measurement": "degradation activity across all the three BET family members relative to 1", "setting": "[4]", "value": "significant lower activity"}]}]}
